Like-named read-outs stand apart in the source and are kept apart here.
Assays:
[1] = Two-step infusion after bolus, AOL plasma concentration in human; assay type: in vivo; conditions: 2-step infusion 6 then 3 μg/kg/h (3 h + 9 h), lower and higher bolus doses
Method: In that respect, the management of the immediate post-initiation period has been evaluated using a 2-step infusion approach, i.e., starting with a higher dose (6 jig/kg/h) in the first 3 hours of infusion, and then stepping down to a lower dose (3 jig/kg/h) for the remaining time (in this example, 9 hours, for a total infusion period of 12 hours).
The same 2-step infusion regimen was tested with 2 different bolus doses.

[2] = test system: myocardial ischemia-reperfusion, left coronary artery occlusion; assay: In vivo ischemia-reperfusion model in rat (30 min left coronary artery occlusion, 3 h reperfusion); conditions: for reduction of the size of the myocardial infarction / reduction of the size of the no-reflow zone: versus control; for Area of necrosis/Area at risk (%) / Area of no-reflow/Area at risk (%): mean±SEM
Method: 64 female Sprague Dawley rats (— 6 months old) were anesthetized with intraperitoneal ketamine (90 mg/kg) and xylazine (10 mg/kg). Only female rats were used in this study as it was previously reported that gender had no effect on the extent of myocardial injury in the setting of experimental myocardial infarction in rats (Li & Kloner, 1995. J Thromb Thrombolysis. 2(3):221-225); and that lethal reperfusion-induced arrhythmias led to a higher mortality in male rats versus female rats (Dow et al., 2015. Springerplus. 4:96).
The animals were intubated and mechanically ventilated with room air at respiratory rate of 60 cycles/minute and tidal volume of 1 mL per 100 g body weight (Harvard Apparatus Rodent Ventilator, Model 683, South Natick, Mass). A water circulating heating pad was used to keep the rat body temperature at around 37° C. Their neck surgical area was shaved and cleaned, and catheters were inserted into the jugular vein (for drug delivery) and carotid artery (for arterial waveform monitoring) via cut downs. Under clean conditions, the chest cavity was opened through an incision in the left 4th intercostal space to expose the heart. The pericardium was gently removed to expose the anterior surface of the left ventricle. A 4-0 silk suture was placed under the proximal portion of the left coronary artery as it runs through the interventricular groove just under the tip of the left atrial appendage. The end of the suture was threaded through a small plastic tube to make a snare for coronary artery occlusion. At the time of occlusion, the artery was pulled through the plastic tube and the tube was clamped. Coronary artery reperfusion occurred by releasing the clamp and watching the surface of the heart for reactive hyperemia. The left coronary artery was occluded for 30 minutes followed by 3 hours of reperfusion.
Rats were randomized into one of the 3 groups: • preventive group (n=22): AOL infusion starting 5 minutes before coronary artery occlusion; • curative group (n=20): AOL infusion starting 5 minutes prior to reperfusion; • control group (n=22): vehicle infusion starting 5 minutes before coronary artery occlusion.
The investigators were blinded to the animal randomization. Infusions in all groups were continuous throughout the end of the study (h+3 after reperfusion). In treated rats, the dose of AOL was 0.2 mg/kg/hour delivered in saline at a rate of infusion of 2 mL/kg/hour.
By the end of the 3-hour reperfusion, a solution of thioflavin S was injected into the jugular vein during the last one minute of reperfusion to assess the distribution of the no-reflow phenomenon (also known as “zone of microvascular obstruction”). Thioflavin S is a dye that appears fluorescent in areas receiving perfusion, when heart slices are visualized under UV light; while the no-reflow area, that lacks perfusion, appears dark (non-fluorescent). At the end of the period of reperfusion after thioflavin S injection, the proximal coronary artery was briefly re-occluded and blue dye (Super imperse blue) was injected into the jugular vein.
At the end of this step, the animal was euthanized under deep anesthesia with ketamine/xylazine by intravascular injection of KCl (149 mg/mL) at 0.5 mL/250 g body weight in order to stop the heart in a relative diastolic or relaxed state. The heart was excised and was gently washed in clear saline, and then transected into 4 transverse slices from apex to base.
The heart slices were photographed under white light in order to delineate the ischemic risk zone (pink) versus the non-ischemic regions (blue) that received the blue dye. The heart slices were then photographed under UV light in order to delineate the areas of perfusion by thioflavin S (fluorescent areas) versus the no-reflow zones (non-fluorescent).
Finally, hearts were incubated in 1% of triphenyl tetrazolium chloride (TTC), a chemical that stains viable cells brick red, while dead or necrotic cells appear white. […]

[3] = Clinical pharmacokinetics study in healthy volunteers, IV bolus + 1-step infusion; assay type: in vivo, human; conditions: for Cmax / concentration at 12 hours: both sexes, human, plasma; for Cmax: intravenous, read-out: AOL plasma concentration Cmax; for concentration at 12 hours: iv, read-out: AOL plasma concentration End of 12-hour infusion (IV)
Method: The concentration of AOL in the subject's plasma can be measured by means and methods well known to the skilled artisan, such as liquid chromatography-mass spectrometry (LC/MS) or any other suitable means or method. For example, a blood sample from the subject can be centrifuged—preferably within 30 minutes after blood sampling—at about 1 500 g for 10 minutes at 2-8° C. to obtain plasma—the skilled artisan is familiar with method of obtaining plasma from a blood sample, and can readily adapt the centrifugal force, time, temperature and any other parameter according to their routine practice. Immediately after centrifugation, the plasma sample can be analyzed to assess the concentration of AOL by liquid chromatography-mass spectrometry (LC/MS).
A single site, randomized, placebo-controlled, open-label and single blind, ascending dose, cross-over study primarily aiming at evaluating the pharmacokinetics, safety and tolerability of AOL administered intravenously in healthy volunteers versus a marketed formulation of AOL (Sulfarlem 525 ®) administered orally was carried out at QPS Netherlands B.V. (Groningen, The Netherlands). Twelve healthy male and female subjects aged between 18 and 65 years old were included in this study.
During this clinical pharmacokinetics study, several dosage regimens have been tested to assess the safety of AOL and to better characterized its pharmacokinetics profile, when administered by IV route (Table 2).

[4] = test system: myocardial ischemic-reperfusion, LAD coronary artery occlusion; assay: In vivo ischemia-reperfusion model in sheep (balloon catheter LAD occlusion); conditions: ST-segment elevation, troponin Ic, CPK, infarct size, ejection fraction; level when occluding balloon deflated
Method: (§1) Here, we investigated the effect of AOL in an in vivo ischemic-reperfusion model in sheep, by administering AOL prior to reperfusion to assess the cardioprotective potential of AOL. Several parameters were evaluated: • the infarct size, determined at the end of the experiment (day 3), and assessed by two independent pathologists; • the plasmatic exposure, evaluated by dosing plasma samples collected at regular intervals after administration of AOL by mass spectrometry; • ECG parameters; and • heart contractility, assessed through the measurement of the ejection fraction.
The efficacy of AOL was evaluated by comparing these parameters in vehicle- and AOL-treated groups using the sheep model.
Sheep underwent a myocardial ischemic-reperfusion, while either receiving AOL or the vehicle as a control. The animals underwent a three-day follow-up period and were euthanized on day 3.
Myocardial ischemic followed by reperfusion was induced by using the balloon catheter procedure, which consists in occluding the distal left anterior descending (LAD) coronary artery by inflating/deflating a balloon. This particular procedure allowed to have infarction sizes highly reproducible and to occlude only temporally the coronary artery.
AOL or vehicle were administered as a bolus intravenous (IV) injection 10 minutes prior to reperfusion. […]

[5] = Plasma exposure of AOL metabolite in sheep after bolus/infusion; assay type: in vivo; conditions: limit of quantification
Method: as §1
AOL or vehicle were administered as a bolus intravenous (IV) injection 10 minutes prior to reperfusion. This bolus injection was expected to ensure an effective AOL plasma exposure on reperfusion and was immediately followed by a continuous IV infusion starting at the beginning of the reperfusion, for a total duration of administration (bolus+infusion) of 130 minutes.
This starkly contrasted with the metabolization profile that we had observed in sheep (Example 2), where AOX remained below the limit of quantification (0.5 ng/mL) after bolus/infusion, despite similar or even higher doses (FIGS. 9B & 9C).

[6] = curative (shortly before reperfusion)
[7] = curative group: AOL 0.2 mg/kg/hour infusion starting 5 minutes prior to reperfusion
[8] = preventive (prior to coronary artery occlusion)
[9] = preventive group: AOL 0.2 mg/kg/hour infusion starting 5 minutes before coronary artery occlusion
[10] = bolus 0.3 μg/kg, infusion 0.4 μg/kg/hr for 12 hours
[11] = bolus 0.9 μg/kg, infusion 1.7 μg/kg/hr for 12 hours
[12] = bolus 1.8 μg/kg, infusion 3 μg/kg/hr for 12 hours
[13] = bolus 4 μg/kg, infusion 6 μg/kg/hr for 12 hours

COc1ccc(-c2cc(=S)ss2)cc1 [AOL, 5-(4-methoxyphenyl)dithiole-3-thione]
trough of AOL plasma concentration after the bolus [1]: abolished the trough
effect on hemodynamics (heart rate, arterial blood pressure) ([2]; baseline, end of occlusion, end of 3 hours reperfusion): without effect on hemodynamics
reduction of the size of the myocardial infarction [2, 6]: 11%
reduction of the size of the no-reflow zone [2, 6]: 23%
Area of necrosis/Area at risk (%) [2, 7]: 50.8 ± 3.9^ %
Area of no-reflow/Area at risk (%) [2, 7]: 30.1 ± 2.3 %
reduction of the size of the myocardial infarction [2, 8]: 22%
reduction of the size of the no-reflow zone [2, 8]: 26%
Area of necrosis/Area at risk (%) [2, 9]: 44.5 ± 2.9^& %
Area of no-reflow/Area at risk (%) [2, 9]: 28.8 ± 2.4 %
slope of linear regression, plasma concentration at Cmax (Y) versus bolus dose (X) ([3]; Y=slope×X, FIG. 8A): 1.046
slope of linear regression, plasma concentration at end of infusion (Y) versus infusion dose (X) ([3]; Y=slope×X, FIG. 8B): 0.5723
time at which steady state was reached ([3]; all dosage regimens tested): around 3 hours
AOL plasma concentration Valley [3, 10]: ~0.08 ng/mL
AOL plasma concentration Valley [3, 11]: ~0.37 ng/mL
AOL plasma concentration Valley [3, 12]: ~0.72 ng/mL
AOL plasma concentration Valley [3, 13]: ~2.67 ng/mL
Cmax [3, 10]: 0.29 ng/mL
Cmax [3, 11]: 1.04 ng/mL
Cmax [3, 12]: 1.94 ng/mL
Cmax [3, 13]: 4.14 ng/mL
concentration at 12 hours [3, 10]: ~0.1 ng/mL
concentration at 12 hours [3, 11]: ~0.8 ng/mL
concentration at 12 hours [3, 12]: ~1.7 ng/mL
concentration at 12 hours [3, 13]: ~3.5 ng/mL
metabolization of AOL into AOX ([3]; human subjects, FIG. 9A): rapidly metabolized into AOX
AOL plasma level at reperfusion at which positive impact compared to vehicle was observed [4]: > 1 ng per mL of plasma

Oc1ccc(-c2cc(=S)ss2)cc1 [AOX, desmethylanethole trithione]
AOX plasma concentration [5]: < 0.5 ng/mL
appearance of AOX in plasma after start of AOL administration ([3]; human subjects, FIG. 9A): quickly appeared in the plasma

Reference: patent US20240050402A1, “ANETHOLE TRITHIONE ADMINISTRATION REGIMEN FOR THE PREVENTION OR TREATMENT OF ISCHEMIA-REPERFUSION INJURIES” (priority 2020, published 2024)
